Assay results taken from paper PMC11224556, “Next-generation of BBQ analogues that selectively target breast cancer” (Frontiers in Chemistry, 2024).
Read-outs that look alike come from different tables or passages of the source.

Columns and labels:
Format in all cases: cell-based, human
[1] = test system: A2780 (ovary) cells; test: MTT growth inhibition assay (72 h)
Source text: (§1) Each BBQ analogue, 2-14 was screened for their growth inhibition ability (GI50) in a broad panel of cancer cell lines and a non-cancer breast cell line (MCF10A), using the MTT growth inhibition assay (Table 1) ([Baker et al., 2021b]). The cancer panel comprised HT29 (colorectal), U87 (brain), SJ-G2 (brain), A2780 (ovary), Du145 (prostate), BE2-C (neuronal), MIA (pancreas), H460 (lung, ER+), A431 (vulva, ER+ (estrogen receptor positive)), and a wide selection of breast cancer cell lines with varying receptor status including MCF-7 (ER + luminal A), T47D (ER/PR+ (progesterone receptor positive)luminal A), ZR-75-1 (ER/PR + luminal A), BT-474 (ER/PR/HER2+ luminal B), SKBR-3 (HER2+), MDA-MB-468, BT20, and MDA-MB-231 (basal, triple negative (TN) for ER, PR, and HER2).
(§2) Stock solutions were prepared as follows and stored as 20 mM DMSO solutions at −20 °C. All cell lines were cultured in a humidified atmosphere 5% CO2 at 37 °C. The cancer cell lines were maintained in Dulbecco’s modified Eagle’s medium (DMEM) (Trace Biosciences, Australia) supplemented with 10% foetal bovine serum (FBS), 10 mM sodium bicarbonate, penicillin (100 IU/mL), streptomycin (100 μg/mL), and glutamine (4 mM). The non-cancer MCF10A cell line was cultured in DMEM:F12 (1:1) cell culture media, 5% heat inactivated horse serum, supplemented with penicillin (50 IU/mL), streptomycin (50 μg/mL), 20 mM Hepes, L-glutamine (2 mM), epidermal growth factor (20 ng/mL), hydrocortisone (500 ng/mL), cholera toxin (100 ng/mL), and insulin (10 μg/mL). The AhR reporter cell line HT29-Lucia™ (Invivogen, United States) was maintained in DMEM supplemented with 10% heat inactivated FBS, L-glutamine (2 mM), penicillin (100 IU/mL), streptomycin (100 μg/mL), 100 μg/mL Normocin™, and 100 μg/mL of the selective antibiotic Zeocin™. All cell lines were purchased from the American Type Culture Collection (ATCC), except for A2780 and A431 which were from the European Collection of Authenticated Cell Cultures (ECACC), and SJ-G2 cell line which was from Dr Mary Danks, St Jude Children’s Research hospital, Memphis, TN.
(§3) Cells in logarithmic growth were transferred to 96-well plates. Cytotoxicity was determined by plating cells in duplicate in 100 μL medium at a density of 2,500–4,000 cells/well in 96 well plates. On day 0, (24 h after plating) when the cells were in logarithmic growth 100 μL medium with or without the test agent was added to each well. After 72 h drug exposure growth inhibitory effects were evaluated using the MTT (3-[4,5-dimethylthiazol-2-yl]-2,5-diphenyltetrazolium bromide) assay with absorbance read at 540 nm. An eight-point dose response curve was produced, using MS Excel software. From these dose-response curves, the GI50 value was calculated, representing the drug concentration at which cell growth is 50% inhibited based on the difference between the optical density values on day 0 and those at the end of drug exposure ([Bradshaw et al., 2008]; [Zhang et al., 2009]). Each data point was conducted in duplicate and the mean ± S.E.M. calculated from four to five replicates (n = 4 or 5), which were performed on separate occasions and separate cell line passages. Where shown, significant test results were determined using T-test analysis at p < 0.01 and p < 0.05 with a two tail distribution.

[2] = test system: A431 (vulva/skin) cells; test: MTT growth inhibition assay (72 h)
Source text: as §1, §2, §3

[3] = test system: BE2-C (neuronal) cells; test: MTT growth inhibition assay (72 h); conditions: Neuron
Source text: as §1, §2, §3

[4] = test system: BT20 breast cancer cells; test: MTT growth inhibition assay (72 h)
Source text: as §1, §2, §3

[5] = test system: BT474 breast cancer cells; test: MTT growth inhibition assay (72 h)
Source text: as §1, §2, §3

[6] = test system: Du145 (prostate) cells; test: MTT growth inhibition assay (72 h)
Source text: as §1, §2, §3

[7] = test system: H460 (lung) cells; test: MTT growth inhibition assay (72 h)
Source text: as §1, §2, §3

[8] = test system: HT29 (colorectal) cells; test: MTT growth inhibition assay (72 h)
Source text: as §1, §2, §3

[9] = test system: MCF-7 breast cancer cells; test: MTT growth inhibition assay (72 h)
Source text: as §1, §2, §3

[10] = test system: MCF10A normal breast cells; test: MTT growth inhibition assay (72 h)
Source text: as §1, §2, §3

[11] = test system: MDA-MB-231 breast cancer cells; test: MTT growth inhibition assay (72 h); conditions: MDA-MB-231, Breast (TN)
Source text: as §1, §2, §3

[12] = test system: MDA-MB-468 breast cancer cells; test: MTT growth inhibition assay (72 h); conditions: MDA-MB-468, Breast (TN)
Source text: as §1, §2, §3

[13] = test system: MIA (pancreas) cells; test: MTT growth inhibition assay (72 h)
Source text: as §1, §2, §3

[14] = test system: SJ-G2 (brain) cells; test: MTT growth inhibition assay (72 h); conditions: SJ-G2, Brain (GBM)
Source text: as §1, §2, §3

[15] = test system: SKBR3 breast cancer cells; test: MTT growth inhibition assay (72 h)
Source text: as §1, §2, §3

[16] = test system: U87 (brain) cells; test: MTT growth inhibition assay (72 h); conditions: U87, Brain (GBM)
Source text: as §1, §2, §3

[17] = test system: ZR-75-1 breast cancer cells; test: MTT growth inhibition assay (72 h); conditions: ZR-75-1, Breast (ER/PR)
Source text: as §1, §2, §3

[18] = test system: broad panel of cancer cell lines and non-cancer breast cell line MCF10A; test: MTT growth inhibition: GI50 ranges and selectivity across the cell line panel; conditions: for fold more potent than head group substituted analogues 3, 4, 6, 7, 8 and 9: across the cell lines examined (Table 1)
Source text: as §1, §2, §3

[19] = test system: T47D breast cancer cells; test: MTT growth inhibition assay (72 h); conditions: Breast (ER/PR)
Source text: as §1, §2, §3

[20] = Homo sapiens, A-431, A431, Skin (ER)
[21] = Homo sapiens, BT-20, BT20, Breast (TN)
[22] = Homo sapiens, BT-474, BT474, Breast (ER/PR/HER2)
[23] = Homo sapiens, NCI-H460, H460, Lung (ER)
[24] = Homo sapiens, HT-29, HT29, Colon
[25] = Homo sapiens, MCF7, MCF-7, Breast (ER)
[26] = Homo sapiens, SK-BR-3, SKBR3, Breast (HER2)

Row | Molecule | GI50 [1] [µM] | GI50 ([2]; A431, Skin (ER)) [µM] | GI50 [3] [µM] | GI50 ([4]; BT20, Breast (TN)) [µM] | GI50 ([1]; Homo sapiens) [µM] | GI50 [2, 20] [µM] | GI50 ([3]; Homo sapiens, BE(2)-C) [µM] | GI50 [4, 21] [µM] | GI50 [5, 22] [µM] | GI50 ([6]; Homo sapiens, DU-145) [µM] | GI50 [7, 23] [µM] | GI50 [9, 25] [µM] | GI50 ([10]; Homo sapiens, MCF-10A) [µM] | GI50 ([11]; Homo sapiens) [µM] | GI50 ([13]; Homo sapiens) [µM] | GI50 ([14]; Homo sapiens) [µM] | GI50 [15, 26] [µM] | GI50 ([19]; Homo sapiens) [µM] | GI50 ([16]; Homo sapiens) [µM] | GI50 ([17]; Homo sapiens) [µM] | further results
1 | 3-Nitro-7H-benzo[de]benzo[4,5]imidazo[2,1-a]isoquinolin-7-one (11a) and 4-nitro-7H-benzo[de]benzo[4,5]imidazo[2,1-a]isoquinolin-7-one (11b) [Compound 11] | 0.01 ± 0.003 | 0.088 ± 0.031 | 0.74 ± 0.13 | 0.0084 ± 0.004 | – | – | – | – | – | – | – | – | – | – | – | – | – | – | – | – | GI50 ([5]; BT474, Breast (ER/PR/HER2)): 0.15 ± 0.053 µM; GI50 [6]: 0.32 ± 0.049 µM; GI50 ([7]; H460, Lung (ER)): 0.00019 ± 0.0001 µM; GI50 ([8]; HT29, Colon): 0.3 ± 0.11 µM; GI50 ([9]; MCF-7, Breast (ER)): 0.0065 ± 0.0038 µM; GI50 [10]: 0.0031 ± 0.002 µM; GI50 [11]: 2.1 ± 0.29 µM; GI50 [12]: 0.0015 ± 0.0008 µM; GI50 [13]: 1.4 ± 0.45 µM; GI50 [14]: 0.61 ± 0.14 µM; GI50 ([15]; SKBR3, Breast (HER2)): 0.036 ± 0.006 µM; GI50 [16]: 0.55 ± 0.11 µM; GI50 [17]: 0.0027 ± 0.0022 µM; fold more potent than head group substituted analogues 3, 4, 6, 7, 8 and 9 [18]: > 10 fold
2 | 7-Oxo-7H-benzo[de]benzo[4,5]imidazo[2,1-a]isoquinoline-10-carbonitrile (9a) and 7-oxo-7H-benzo[de]benzo[4,5]imidazo[2,1-a]isoquinoline-11-carbonitrile (9b) [Compound 9] | 7 ± 0.64 | 1.1 ± 0.1 | > 50 | 9.3 ± 8.4 | – | – | – | – | – | – | – | – | – | – | – | – | – | – | – | – | GI50 ([5]; BT474, Breast (ER/PR/HER2)): > 50 µM; GI50 [6]: 45 ± 1.7 µM; GI50 ([7]; H460, Lung (ER)): 41 ± 5.9 µM; GI50 ([8]; HT29, Colon): 44 ± 6.3 µM; GI50 ([9]; MCF-7, Breast (ER)): 25 ± 8.3 µM; GI50 [10]: 7.8 ± 1.62 µM; GI50 [11]: 38 ± 6 µM; GI50 [12]: 0.074 ± 0.021 µM; GI50 [13]: 41 ± 9.5 µM; GI50 [14]: 26 ± 3.8 µM; GI50 ([15]; SKBR3, Breast (HER2)): 0.27 ± 0.018 µM; GI50 [19]: 4.2 ± 0.73 µM; GI50 [16]: 43 ± 4 µM; GI50 [17]: 0.089 ± 0.04 µM
3 | Nc1ccccc1N1C(=O)c2cccc3cccc(c23)C1=O [Compound 2, 2-(2-aminophenyl)-1H-benzo[de]isoquinoline-1,3(2H)-dione] | – | – | – | – | – | – | – | – | – | – | – | – | – | – | – | – | – | – | – | – | increase in growth inhibition potency compared with MCF10A cells (fold, range over cell lines) ([18]; A431, T47D, ZR-75-1, SKBR3, MDA-MB-468 vs MCF10A, from GI50 values of ref Gilbert et al., 2020): 100 to 300 fold
4 | O=c1c2cccc3cccc(c32)c2nc3ccc(Cl)cc3n12 [Compound 3, 10-Chloro-7H-benzo[de]benzo[4,5]imidazo[2,1-a]isoquinolin-7-one] | – | – | – | – | 6.2 ± 0.46 | 12 ± 1.8 | 17 ± 4.3 | 33 ± 4 | > 50 | 22 ± 3.1 | 7.2 ± 1.16 | 7.9 ± 1.14 | 3.9 ± 0.21 | 17 ± 6.1 | > 50 | 33 ± 8.3 | 0.3 ± 0.12 | 11 ± 1.4 | 18 ± 3.8 | 0.48 ± 0.24 | GI50 [8, 24]: 21 ± 3.3 µM; GI50 ([18]; Homo sapiens, read-out: GI50 (range over cell lines and both compounds 3 and 4), ZR-75-1, SKBR3 and MDA-MB-468): 0.26 to 0.88 µM
5 | O=c1c2cccc3cccc(c32)c2nc3ccccc3n12 [Compound 5, 7H-Benzo[de]benzo[4,5]imidazo[2,1-a]isoquinolin-7-one] | – | – | – | – | 2.2 ± 0.21 | 0.05 ± 0.013 | 5.1 ± 0.74 | 0.41 ± 0.39 | 1.5 ± 1.3 | 4.1 ± 0.03 | 0.61 ± 0.13 | 2.1 ± 0.44 | 3.2 ± 0.32 | 5.5 ± 1.8 | 5.2 ± 0.73 | 4.6 ± 0.23 | 0.032 ± 0.014 | 0.2 ± 0.073 | 7 ± 0.033 | 0.026 ± 0.015 | GI50 [8, 24]: 2.1 ± 0.3 µM; fold greater response (selectivity) in MDA-MB-468 than in normal MCF10A breast cells ([18]; GI50 MCF10A / GI50 MDA-MB-468): 3,200 fold; growth inhibition compared with normal cells (fold, range over cell lines) ([18]; H460, A431, T47D, ZR-75-1, SKBR3, MDA-MB-468, BT20 vs MCF10A): 5 to 3200 fold; GI50 ([18]; Homo sapiens, T47D, ZR-75-1, SKBR3, MDA-MB-468 and BT20, read-out: GI50 (range over cell lines)): 0.001 to 0.41 µM; GI50 ([18]; Homo sapiens, all other cell populations (than H460, A431, T47D, ZR-75-1, SKBR3, MDA-MB-468, BT20), read-out: GI50 (range over cell lines)): 1.5 to 7 µM; GI50 ([18]; Homo sapiens, other cell lines HT29, U87, SJ-G2, A2780, DU145, BE2-C, MIA, MDA-MB-231, read-out: GI50 (range over cell lines)): 2.1 to 7 µM; fold more potent than head group substituted analogues 3, 4, 6, 7, 8 and 9 [18]: > 10 fold; GI50 ([18]; select breast cancer cell lines MCF-7, T47D, ZR-75-1, SKBR3, MDA-MB-468, BT20, BT474, read-out: GI50 values (range over cell lines)): 0.001 to 2.1 µM
6 | O=C(O)c1ccc2c3c1cccc3c(=O)n1c3ccccc3nc21 [Compound 14, reference compound] | – | – | – | – | 12 ± 0.91 | 28 ± 5.1 | 6.9 ± 1.6 | 50 | > 50 | 21 ± 2 | 20 ± 0.33 | > 50 | 15 ± 0.58 | 50 | 20 ± 0.67 | 13 ± 1.2 | 21 ± 0.67 | 16 ± 0.58 | 25 ± 1.7 | 24 ± 3.3 | GI50 ([12]; Homo sapiens): 6.13 ± 3.05 µM
